Experimental data reported in patent publication US20090130017A1, “Targeted short-lived drug delivery” (Searete LLC, priority 2007, published 2009).
Read-outs that look alike come from different tables or passages of the source.

Experiments:
[1] = rat, in vivo; cited from earlier work
[2] = cited from earlier work
[3] = in vivo; cited from earlier work
[4] = estimated blood plasma concentration of oxaliplatin in systemic therapy for colon cancer; assay type: in vivo, human; details: 85 mg per meter-squared, 145 mg total dose, 65 kg person, 5 liters of blood, assuming even distribution and constant rate of elimination
[5] = cited from earlier work; remark: listed apart in the source
[6] = IV infusion of 20 mcg/kg over 24 hours

## NGF: nerve growth factor
[1]
  serum half-life: about 7.2 minutes

## COc1cc([C@@H]2c3cc4c(cc3[C@@H](O[C@@H]3O[C@@H]5CO[C@@H](C)O[C@H]5[C@H](O)[C@H]3O)[C@H]3COC(=O)[C@H]23)OCO4)cc(OC)c1O [etoposide]
[2]; in children
  half-life: about 3 hours

## streptokinase
[3]
  half-life: about 20 minutes

## tissue plasminogen activator [TPA]
[3]
  circulation half-life: approximately 5 minutes

## O=C1[O][Pt]2([NH][C@@H]3CCCC[C@H]3[NH]2)[O]C1=O [oxaliplatin]
[4]
  blood plasma concentration: approximately 3 micrograms per milliliter
[3]
  half-life: 10 to 25 min

## COc1ccc(C(CN(C)C)C2(O)CCCCC2)cc1 (centres unmarked) [venlafaxine]
[3]
  half-life: about 5 hours

## heparin
[3]
  half-life: around 1.5 hours

## N.N.O=C([O-])C1(C(=O)[O-])CCC1.[Pt+2] [carboplatin]
[3]
  half-life: 60 to 120 min

## O=C(O)CCCc1ccc(N(CCCl)CCCl)cc1 [Chlorambucil, chlorambucil]
[2]; in human
  half-life: about 1.5 hours

## Nc1ncnc2c1ncn2[C@@H]1O[C@H](CO)[C@@H](O)[C@H]1O [Adenosine, adenosine]
[3]
  half-life (in words): a few seconds

## CC[C@H]1OC(=O)[C@H](C)[C@@H](O[C@H]2C[C@@](C)(OC)[C@@H](O)[C@H](C)O2)[C@H](C)[C@@H](O[C@@H]2O[C@H](C)C[C@H](N(C)C)[C@H]2O)[C@](C)(O)C[C@@H](C)C(=O)[C@H](C)[C@@H](O)[C@]1(C)O [Erythromycin, erythromycin]
[3]
  half-life: approximately 1.5 hours

B1: NEUPOGEN® (Filgrastim): colony stimulating factor product, normally used systemically (protein, chains of the INN, looked up)
chain: MTPLGPASSLPQSFLLKCLEQVRKIQGDGAALQEKLCATYKLCHPEELVLLGHSLGIPWAPLSSCPSQALQLAGCLSQLHSGLFLYQGLLQALEGISPELGPTLDTLQLDVADFATTIWQQMEELGMAPALQPTQGAMPAFASAFQRRAGGVLVASHLQSFLEVSYRVLRHLAQP
[5]; [6]
  mean serum concentration: approximately 48 ng/mL
  median serum concentration: ~56 ng/mL
[5]; subcutaneous administration of 3.45 mcg/kg
  maximum serum concentration: 4 ng/mL
[5]; subcutaneous administration of 11.5 mcg/kg
  maximum serum concentration: 49 ng/mL
[3]
  half-life: about 3.5 hours
